Source: US7138361B2, “Herbicidal heterocycles” (E. I. du Pont de Nemours and Company, priority 2000, dated 2006)

Assays:
Format in all cases: in vivo
[1] = tested on: Sunflower; assay: Test C preemergence; conditions: visual evaluation after 12 to 14 days
[2] = tested on: bermudagrass (Cynodon dactylon); assay: Test C preemergence; conditions: for Plant response rating, Bermudagrass: scale 0 to 100, 0 no effect, 100 complete control; for Plant response rating (0 to 100 where 0 is no effect and 100 is complete control), Bermudagrass: visual evaluation after 12 to 14 days
Description: (§1) Seeds of plant species selected from bermudagrass (Cynodon dactylon), Surinam grass (Brachiaria decumbens), cocklebur (Xanthium strumarium), corn (Zea mays), crabgrass (Digitaria sanguinalis), woolly cupgrass (Eriochloa villosa), giant foxtail (Setaria faberii), goosegrass (Eleusine indica), johnsongrass (Sorghum halepense), kochia (Kochia scoparia), lambsquarters (Chenopodium album), morningglory (Ipomoea hederacea), yellow nutsedge (Cyperus esculentus), pigweed (Amaranthus retroflexus), common ragweed (Ambrosia elatior), soybean (Glycine max) and velvetleaf (Abutilon theophrasti) were planted and treated preemergence with test chemicals formulated in a non-phytotoxic solvent mixture which included a surfactant.
(§2) At the same time, plants selected from these crop and weed species and also winter barley (Hordeum vulgare), blackgrass (Alopecurus myosuroides), canary grass (Phalaris minor), chickweed (Stellaria media), downy brome (Bromus tectorum), green foxtail (Setaria viridis), Italian ryegrass (Lolium multiflorum), wheat (Triticum aestivum), wild oat (Avena fatua) and windgrass (Apera spica-venti) were treated with postemergence applications of some of the test chemicals formulated in the same manner. Plants ranged in height from 2 to 18 cm (1- to 4-leaf stage) for postemergence treatments. Plant species in the flooded paddy test consisted of rice (Oryza saliva), smallflower flatsedge (Cyperus difformis), duck salad (Heteranthera limosa) and barnyardgrass (Echinochloa crus-galli) grown to the 2-leaf stage for testing. Treated plants and controls were maintained in a greenhouse for 12 to 14 days, after which time all species were compared to controls and visually evaluated. Plant response ratings, summarized in Table C, are based on a scale of 0 to 100 where 0 is no effect and 100 is complete control. A dash (-) response means no test result.

[3] = tested on: johnsongrass (Sorghum halepense); assay: Test C preemergence; conditions: for Plant response rating, Johnsongrass: scale 0 to 100, 0 no effect, 100 complete control; for Plant response rating (0 to 100), Johnsongrass: visual evaluation after 12 to 14 days
Description: as §1, §2

[4] = tested on: velvetleaf (Abutilon theophrasti); assay: Test C preemergence; conditions: preemergence; for Plant response rating (0 to 100), Velvetleaf: visual evaluation after 12 to 14 days; for Plant response rating, Velvetleaf: scale 0 to 100, 0 no effect, 100 complete control
Description: as §1, §2

[5] = tested on: corn (Zea mays); assay: Test C preemergence; conditions: for Plant response rating, Corn: scale 0 to 100, 0 no effect, 100 complete control; for Plant response rating (0 to 100), Corn: visual evaluation after 12 to 14 days
Description: as §1, §2

[6] = tested on: yellow nutsedge (Cyperus esculentus); assay: Test C preemergence; conditions: for Plant response rating, Nutsedge: scale 0 to 100, 0 no effect, 100 complete control; for Plant response rating (0 to 100), Nutsedge: visual evaluation after 12 to 14 days
Description: as §1, §2

[7] = tested on: giant foxtail (Setaria faberii); assay: Test C preemergence; conditions: for Plant response rating, Foxtail, Giant: scale 0 to 100, 0 no effect, 100 complete control; for Plant response rating (0 to 100), Foxtail, Giant: visual evaluation after 12 to 14 days
Description: as §1, §2

[8] = tested on: kochia (Kochia scoparia); assay: Test C preemergence; conditions: for Plant response rating, Kochia: scale 0 to 100, 0 no effect, 100 complete control; for Plant response rating (0 to 100), Kochia: visual evaluation after 12 to 14 days
Description: as §1, §2

[9] = tested on: morningglory (Ipomoea hederacea); assay: Test C preemergence; conditions: for Plant response rating, Morningglory: scale 0 to 100, 0 no effect, 100 complete control; for Plant response rating (0 to 100), Morningglory: visual evaluation after 12 to 14 days
Description: as §1, §2

[10] = tested on: pigweed (Amaranthus retroflexus); assay: Test B postemergence; conditions: 13 to 15 days
Outline: (§3)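 Visual injury scores, 0 = no effect to 100 = complete control, assigned against controls after 13 to 15 days in the greenhouse. Compounds formulated in non-phytotoxic solvent plus surfactant and applied to soil after planting (pre) or onto foliage of 1- to 4-leaf plants (post).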

[11] = tested on: cocklebur (Xanthium strumarium); assay: Test B postemergence; conditions: 13 to 15 days
Outline: as §3

[12] = tested on: Surinam grass (Brachiaria decumbens); assay: Test B postemergence; conditions: 13 to 15 days
Outline: as §3

[13] = tested on: velvetleaf (Abutilon theophrasti); assay: Test B postemergence; conditions: 13 to 15 days
Outline: as §3

[14] = tested on: wheat (Triticum aestivum); assay: Test B postemergence; conditions: 13 to 15 days
Outline: as §3

[15] = tested on: blackgrass (Alopecurus myosuroides); assay: Test B postemergence; conditions: 13 to 15 days
Outline: as §3

[16] = tested on: barnyardgrass (Echinochloa crus-galli); assay: Test B postemergence; conditions: 13 to 15 days
Outline: as §3

[17] = tested on: corn (Zea mays); assay: Test B postemergence; conditions: 13 to 15 days
Outline: as §3

[18] = tested on: crabgrass (Digitaria sanguinalis); assay: Test B postemergence; conditions: 13 to 15 days
Outline: as §3

[19] = tested on: giant foxtail (Setaria faberii); assay: Test B postemergence; conditions: 13 to 15 days
Outline: as §3

[20] = tested on: wild oat (Avena fatua); assay: Test B postemergence; conditions: 13 to 15 days
Outline: as §3

[21] = tested on: morning glory (Ipomoea hederacea); assay: Test B postemergence; conditions: 13 to 15 days
Outline: as §3

[22] = tested on: lambsquarters (Chenopodium album); assay: Test B postemergence; conditions: 13 to 15 days
Outline: as §3

[23] = Rate 125 g/ha, scale 0 (no effect) to 100 (complete control)
[24] = Rate 500 g/ha, scale 0 to 100, 0 is no effect, 100 is complete control

## CC1(c2ccn(C3OCN(c4cccc(C(F)(F)F)c4)C3=O)n2)CC1 (centres unmarked) [Compound 62]
[1]; Rate 250 g/ha
  Plant response rating (0 to 100), Sunflower: 0
[1]; Rate 500 g/ha
  Plant response rating (0 to 100), Sunflower: 0
[2]; Rate 62 g/ha
  Plant response rating, Bermudagrass: 40
[2]; preemergence, Rate 250 g/ha
  Plant response rating (0 to 100 where 0 is no effect and 100 is complete control), Bermudagrass: 100
[2]; preemergence, Rate 500 g/ha
  Plant response rating (0 to 100 where 0 is no effect and 100 is complete control), Bermudagrass: 100
[2]; preemergence, Rate 125 g/ha
  Plant response rating, Bermudagrass: 70
[3]; Rate 62 g/ha
  Plant response rating, Johnsongrass: 20
[3]; preemergence, Rate 250 g/ha
  Plant response rating (0 to 100), Johnsongrass: 60
[3]; preemergence, Rate 500 g/ha
  Plant response rating (0 to 100), Johnsongrass: 100
[3]; preemergence, Rate 125 g/ha
  Plant response rating, Johnsongrass: 40
[4]; Rate 250 g/ha
  Plant response rating (0 to 100), Velvetleaf: 0
[4]; Rate 500 g/ha
  Plant response rating (0 to 100), Velvetleaf: 20
[4]; Rate 125 g/ha
  Plant response rating, Velvetleaf: 0
[5]; Rate 62 g/ha
  Plant response rating, Corn: 0
[5]; preemergence, Rate 250 g/ha
  Plant response rating (0 to 100), Corn: 0
[5]; preemergence, Rate 500 g/ha
  Plant response rating (0 to 100), Corn: 20
[5]; preemergence, Rate 125 g/ha
  Plant response rating, Corn: 0
[6]; Rate 62 g/ha
  Plant response rating, Nutsedge: 0
[6]; preemergence, Rate 250 g/ha
  Plant response rating (0 to 100), Nutsedge: 20
[6]; preemergence, Rate 500 g/ha
  Plant response rating (0 to 100), Nutsedge: 70
[6]; preemergence, Rate 125 g/ha
  Plant response rating, Nutsedge: 0
[7]; Rate 62 g/ha
  Plant response rating, Foxtail, Giant: 0
[7]; preemergence, Rate 500 g/ha
  Plant response rating (0 to 100), Foxtail, Giant: 100
[7]; preemergence, Rate 125 g/ha
  Plant response rating, Foxtail, Giant: 0
[8]; Rate 62 g/ha
  Plant response rating, Kochia: 0
[8]; preemergence, Rate 250 g/ha
  Plant response rating (0 to 100), Kochia: 90
[8]; preemergence, Rate 500 g/ha
  Plant response rating (0 to 100), Kochia: 90
[8]; preemergence, Rate 125 g/ha
  Plant response rating, Kochia: 60
[9]; Rate 62 g/ha
  Plant response rating, Morningglory: 0
[9]; preemergence, Rate 250 g/ha
  Plant response rating (0 to 100), Morningglory: 0
[9]; preemergence, Rate 500 g/ha
  Plant response rating (0 to 100), Morningglory: 0
[9]; preemergence, Rate 125 g/ha
  Plant response rating, Morningglory: 0
[10]; [23]
  Plant response rating, Pigweed: 0
[10]; [24]
  Plant response rating, Pigweed: 40
[11]; [23]
  Plant response rating, Cocklebur: 0
[11]; [24]
  Plant response rating, Cocklebur: 0
[12]; [23]
  Plant response rating, Surinam grass: 0
[12]; [24]
  Plant response rating, Surinam grass: 0
[13]; [23]
  Plant response rating, Velvetleaf: 0
[13]; [24]
  Plant response rating, Velvetleaf: 0
[14]; [23]
  Plant response rating, Wheat: 0
[14]; [24]
  Plant response rating, Wheat: 0
[15]; [23]
  Plant response rating, Blackgrass: 0
[15]; [24]
  Plant response rating, Blackgrass: 0
[16]; [23]
  Plant response rating, Barnyardgrass: 0
[16]; [24]
  Plant response rating, Barnyardgrass: 0
[17]; [23]
  Plant response rating, Corn: 0
[17]; [24]
  Plant response rating, Corn: 0
[18]; [23]
  Plant response rating, Crabgrass: 0
[18]; [24]
  Plant response rating, Crabgrass: 0
[19]; [23]
  Plant response rating, Foxtail, Giant: 0
[19]; [24]
  Plant response rating, Foxtail, Giant: 0
[20]; [23]
  Plant response rating, Wild Oat: 0
[20]; [24]
  Plant response rating, Wild Oat: 0
[21]; [23]
  Plant response rating, Morningglory: 0
[21]; [24]
  Plant response rating, Morningglory: 0
[22]; [23]
  Plant response rating, Lambsquarters: 0
[22]; [24]
  Plant response rating, Lambsquarters: 60

## COc1cc(OC)cc(N2CCC(n3ccc(C(C)(C)C)n3)C2=O)c1 (centres unmarked) [Compound 71]
[1]; Rate 500 g/ha
  Plant response rating (0 to 100), Sunflower: 20
[2]; Rate 62 g/ha
  Plant response rating, Bermudagrass: 30
[2]; preemergence, Rate 250 g/ha
  Plant response rating (0 to 100 where 0 is no effect and 100 is complete control), Bermudagrass: 100
[2]; preemergence, Rate 500 g/ha
  Plant response rating (0 to 100 where 0 is no effect and 100 is complete control), Bermudagrass: 100
[2]; preemergence, Rate 125 g/ha
  Plant response rating, Bermudagrass: 90
[3]; Rate 62 g/ha
  Plant response rating, Johnsongrass: 0
[3]; preemergence, Rate 250 g/ha
  Plant response rating (0 to 100), Johnsongrass: 0
[3]; preemergence, Rate 500 g/ha
  Plant response rating (0 to 100), Johnsongrass: 40
[3]; preemergence, Rate 125 g/ha
  Plant response rating, Johnsongrass: 0
[4]; Rate 500 g/ha
  Plant response rating (0 to 100), Velvetleaf: 0
[4]; Rate 125 g/ha
  Plant response rating, Velvetleaf: 0
[4]; Rate 250 g/ha
  Plant response rating, Velvetleaf: 0
[5]; Rate 62 g/ha
  Plant response rating, Corn: 0
[5]; preemergence, Rate 250 g/ha
  Plant response rating (0 to 100), Corn: 0
[5]; preemergence, Rate 500 g/ha
  Plant response rating (0 to 100), Corn: 30
[5]; preemergence, Rate 125 g/ha
  Plant response rating, Corn: 0
[6]; Rate 62 g/ha
  Plant response rating, Nutsedge: 0
[6]; preemergence, Rate 500 g/ha
  Plant response rating (0 to 100), Nutsedge: 70
[6]; preemergence, Rate 125 g/ha
  Plant response rating, Nutsedge: 30
[6]; preemergence, Rate 250 g/ha
  Plant response rating, Nutsedge: 70
[7]; Rate 62 g/ha
  Plant response rating, Foxtail, Giant: 0
[7]; preemergence, Rate 250 g/ha
  Plant response rating (0 to 100), Foxtail, Giant: 0
[7]; preemergence, Rate 500 g/ha
  Plant response rating (0 to 100), Foxtail, Giant: 100
[7]; preemergence, Rate 125 g/ha
  Plant response rating, Foxtail, Giant: 90
[8]; Rate 62 g/ha
  Plant response rating, Kochia: 80
[8]; preemergence, Rate 250 g/ha
  Plant response rating (0 to 100), Kochia: 100
[8]; preemergence, Rate 500 g/ha
  Plant response rating (0 to 100), Kochia: 100
[8]; preemergence, Rate 125 g/ha
  Plant response rating, Kochia: 90
[9]; Rate 62 g/ha
  Plant response rating, Morningglory: 0
[9]; preemergence, Rate 500 g/ha
  Plant response rating (0 to 100), Morningglory: 0
[9]; preemergence, Rate 125 g/ha
  Plant response rating, Morningglory: 0
[9]; preemergence, Rate 250 g/ha
  Plant response rating, Morningglory: 0
[10]; [23]
  Plant response rating, Pigweed: 30
[10]; [24]
  Plant response rating, Pigweed: 60
[11]; [23]
  Plant response rating, Cocklebur: 0
[11]; [24]
  Plant response rating, Cocklebur: 20
[12]; [23]
  Plant response rating, Surinam grass: 0
[12]; [24]
  Plant response rating, Surinam grass: 30
[13]; [23]
  Plant response rating, Velvetleaf: 0
[13]; [24]
  Plant response rating, Velvetleaf: 20
[14]; [23]
  Plant response rating, Wheat: 0
[14]; [24]
  Plant response rating, Wheat: 0
[15]; [23]
  Plant response rating, Blackgrass: 0
[15]; [24]
  Plant response rating, Blackgrass: 0
[16]; [23]
  Plant response rating, Barnyardgrass: 0
[16]; [24]
  Plant response rating, Barnyardgrass: 0
[17]; [23]
  Plant response rating, Corn: 0
[17]; [24]
  Plant response rating, Corn: 0
[18]; [23]
  Plant response rating, Crabgrass: 0
[18]; [24]
  Plant response rating, Crabgrass: 30
[19]; [23]
  Plant response rating, Foxtail, Giant: 0
[19]; [24]
  Plant response rating, Foxtail, Giant: 20
[20]; [23]
  Plant response rating, Wild Oat: 0
[20]; [24]
  Plant response rating, Wild Oat: 0
[21]; [23]
  Plant response rating, Morningglory: 20
[21]; [24]
  Plant response rating, Morningglory: 20
[22]; [23]
  Plant response rating, Lambsquarters: 0
[22]; [24]
  Plant response rating, Lambsquarters: 50
